Earlier results in paper PMC6858927 (Investigational new drugs, 2019).

Tested on: AML cells with TKD mutants
Details: cited from earlier work

| Compound | sensitivity of AML cells with TKD mutants |
| --- | --- |
| CNC(=O)c1cc(Oc2ccc(NC(=O)Nc3ccc(Cl)c(C(F)(F)F)c3)cc2)ccn1 [sorafenib] | highly resistant |
| CC(C)(C)c1cc(NC(=O)Nc2ccc(-c3cn4c(n3)sc3cc(OCCN5CCOCC5)ccc34)cc2)no1 [quizartinib] | highly resistant |
